Test results as given in publication PMC4965013, “Open Source Drug Discovery with the Malaria Box Compound Collection for Neglected Diseases and Beyond” (PLoS Pathogens, 2016).
Where two headings read alike, the source gives them in different places.

Key:
T. equi (USDA strain) = test: T. equi fluorescence-based growth assay; type: cell-based; settings: Theileria equi
[1] = tested on: P. falciparum NF54 GFP-Pfs16 gametocytes stage IV-V; settings: ref [64], cited from earlier work
T. b. brucei Squib 427 = settings: ref [84]; read-out: Trypansoma brucei brucei Squib 427 IC50; cited from earlier work
[2] = Mouse oral PK single dose; type: in vivo; settings: male, CD-1, mouse, plasma, 140 umol/kg; 140 μmol/kg oral
Method: Columns GD-GJ: Wuxi Inc. data for MMV (data presented first in this paper) PK/DMPK Parameters: Fasted animals (Male CD-1 mouse, 7-9 weeks age, 30±10 g, n=3) obtained from an approved vendor (SLAC Laboratory Animal Co. Ltd., Shanghai, China or Sino-British SIPPR/BK Laboratory Animal Co. Ltd Shanghai, China) were administered with a single oral dose (140 μmol/kg) using DMSO: 1% HPMC (5:95) as a vehicle. Blood sampling was performed via the submandibular or saphenous vein (t=0.083, 0.25, 1, 2, 4, 6 and 9 h) and transferred into microcentrifuge tubes containing Sodium Heparin (1,000 IU/ml) as anti-coagulant placed on wet ice until processed for plasma by centrifugation at approximately 4°C, 3000×g for 15 min. Plasma samples were stored in polypropylene tubes, quick frozen over dry ice and kept at -70±10°C until LC/MS/MS analysis. LC/MS/MS methods for the quantitative determination compounds plasma levels were developed with an internal standard. […] (Phoenix WinNonlin, version 6.2.1, Pharsight, Mountain View, CA) and expressed as Cmax & AUC0-last. […] AUC0-last is the area under the curve expressed as >12 h*μM (Yes or No). Plasma protein binding assay (PPB) (CD-1 mouse and human) expressed as <95% bound, >95% bound, or >99% bound. Kinetic Solubility at pH 7.4 was determined by liquid chromatography/chemiluminescence nitrogen detection (LC/CLND) and was scored as greater than 20µM (Yes or No). hERG inhibition was measured at 11µM by the QPatch- HT system and is expressed as “Yes” if greater than 45% inhibited at 11µM and “No” if less than or equal to 45% inhibited at 11µM. As part of the Drug-Drug Interaction studies (DDI issues), 5 human and 1 mouse CYP isoforms (1A2, 2C9, 2C19, 2D6, 3A4-M, 3A4-T) were tested for inhibition assay at 10 µM. […] Otherwise DDI issues were scored as “No”. Positive and negative controls were run for each assay (Table 1).

[3] = tested on: Mycobacterium tuberculosis mc26220 non-replicating; test: microbe, parasite or virus in culture; type: cell-based
[4] = tested on: P. falciparum NF54Pfs16 gametocytes stage IV-V; settings: 5µM; ref [62]; cited from earlier work
[5] = tested on: P. falciparum NF54 late-stage gametocytes; settings: 5 µM; ref [55]; cited from earlier work
[6] = tested on: P. falciparum NF54 GFP-Pfs16 gametocytes stage I-III; settings: ref [64], cited from earlier work
P. berghei ookinetes = test: P. berghei Ookinete Development Assay (Pb ODA); type: cell-based; settings: Plasmodium berghei
Text: Columns BX- CA, CD-DF: Delves, Ruecker, & Sinden group (Data and methods published in ref [82] except Column CE which is new data) The data represent our primary screening data in the P. falciparum Dual Gamete formation assay (Pf DGFA). They show the functional viability of mature Stage V male and female gametocytes as reported by their ability to undergo gamete formation as reported in the reference. Column CD represents primary screening data in the P. berghei Ookinete Development Assay (Pb ODA) at 1 µM as reported in the reference. Column CE represents a parallel screen in the Pb ODA at 10 µM that has not been published.

[7] = tested on: P. falciparum in vitro translation; parameters: method as in ref [19] (a number printed in a supplementary file, which may have a reference list of its own: not looked up in the article's list); settings: 1 µM; ref [19]; cited from earlier work
[8] = tested on: P. falciparum 3D7A stage V gametocytes, female gamete formation; parameters: method as in ref [73] (a number printed in a supplementary file, which may have a reference list of its own: not looked up in the article's list); settings: 5µM; ref [73]; cited from earlier work
[9] = tested on: Saccharomyces cerevisiae strain JHY222; test: S. cerevisiae JHY222 growth in three media; type: cell-based; settings: 100µM
Method: Columns EB-ED: St. Onge group (data presented first in this paper). Growth inhibition of S. cerevisiae: The effects of Malaria Box compounds on the growth of yeast (Saccharomyces cerevisiae) were quantified as described previously. We employed the prototrophic yeast strain JHY222, a derivative of BY4743 in which auxotrophic markers have been repaired. Growth was measured in three different growth media: rich medium using dextrose as a carbon source, minimal medium using dextrose as a carbon source, or minimal medium using ethanol and glycerol as carbon sources. Compounds affecting growth in a media-specific manner may represent inhibitors of key metabolic pathways. For example, the antifolate drug methotrexate was previously shown to inhibit yeast growth far more potently in minimal medium compared to rich medium.

Mycobacterium marinum = test: M. marinum antibiotic assay; type: cell-based; settings: 10µM
Method: Columns FA-FC: Soldati Group (data presented first in this paper). M. marinum, D. discoideum, and Acathamoeba castellani assays. Each compound of the Malaria Box has been assayed at 10 µM in all three assays. First, the antibiotic activity was assayed directly against Mycobacterium marinum in its culture medium. Second, the toxicity and growth inhibitory effect of the compounds was assayed against the amoeba Dictyostelium discoideum in its culture medium. Finally, the “in cellulo” anti-infective activity of each compound was tested using the intracellular infection system Acanthamoeba castellanii-M. marinum. Values have been normalized using the DMSO carrier. For each assay, values have been normalized to 1.00 using the DMSO carrier, which has no detectable effect on D. discoideum nor M. marinum growth, while rifabutin was used as positive control for the antibiotic assay and the infection assay, as it abolishes M. marinum growth (normalized value under 0.10) in broth at 10 µM and intracellularly at 30 µM [150].

## CCN1CCN(c2cc(C)c3cc(NC(=O)c4ccc(OC)c(OC)c4)ccc3n2)CC1 [MMV019074]
T. equi (USDA strain)
  EC50: 0.33 µM
[1]; 0.5µM
  gametocyte late stage (IV-V) GFP-MTR % inhibition: -6.56%
[1]; 5µM
  gametocyte late stage (IV-V) GFP-MTR % inhibition: 4%
T. b. brucei Squib 427
  IC50: 4.78 µM
[2]
  AUC: < 12 µM·h
  Cmax: > 1000 nM
[3]
  inhibition at 25 µM: 13%
[4]
  gametocyte late stage (IV-V) luciferase % inhibition: -9%
[5]
  gametocyte NF54 late stage (IV-V) % inhibition Cassera: 27%
[6]; 0.5µM
  gametocyte early stage (I-III) GFP-MTR % inhibition: 11%
[6]; 5µM
  gametocyte early stage (I-III) GFP-MTR % inhibition: 14%
P. berghei ookinetes
  inhibition at 10 µM: 43%
[7]
  Translation Inhibitors (nl = 1.0, in vitro translation with P. falciparum lysate): 0.94
[8]
  3D7A female gamete formation acridine orange % inhibition: -18%
[9]
  S. cerevisiae jhy222 in YNBD medium growth compared with DMSO control: 0.0025
  S. cerevisiae jhy222 in YNBEG medium growth compared with DMSO control: -0.0049
  S. cerevisiae jhy222 in YPD medium growth compared with DMSO control: -0.0537

## COc1ccc(C(=O)Nc2ccc3nc(N4CCCCC4)cc(C)c3c2)cc1OC [MMV019758]
Mycobacterium marinum
  Mycobacterium marinum relative growth DMSO=1 Antibiotic Assay: 1.01
T. equi (USDA strain)
  EC50: 6.99 µM
[1]; 0.5µM
  gametocyte late stage (IV-V) GFP-MTR % inhibition: 3.3%
[1]; 5µM
  gametocyte late stage (IV-V) GFP-MTR % inhibition: 51%
T. b. brucei Squib 427
  IC50: 16.2 µM
[2]
  AUC: > 12 µM·h
  Cmax: > 1000 nM
[3]
  inhibition at 25 µM: 24%
[5]
  gametocyte NF54 late stage (IV-V) % inhibition Cassera: 56%
[6]; 0.5µM
  gametocyte early stage (I-III) GFP-MTR % inhibition: -8%
[6]; 5µM
  gametocyte early stage (I-III) GFP-MTR % inhibition: 8%
P. berghei ookinetes
  inhibition at 10 µM: 35.4%
[7]
  Translation Inhibitors (nl = 1.0, in vitro translation with P. falciparum lysate): 0.98
[9]
  S. cerevisiae jhy222 in YNBD medium growth compared with DMSO control: 0.0051
  S. cerevisiae jhy222 in YNBEG medium growth compared with DMSO control: 0.20
  S. cerevisiae jhy222 in YPD medium growth compared with DMSO control: 0.0044

## COc1cc2cc(C(=O)Nc3ccccc3)c(N)nc2cc1OC [MMV006767]
T. equi (USDA strain)
  EC50: 3.04 µM
[1]; 0.5µM
  gametocyte late stage (IV-V) GFP-MTR % inhibition: 3%
[1]; 5µM
  gametocyte late stage (IV-V) GFP-MTR % inhibition: -13%
[2]
  AUC: > 12 µM·h
  Cmax: > 1000 nM
[3]
  inhibition at 25 µM: 1.39%
[4]
  gametocyte late stage (IV-V) luciferase % inhibition: 2%
[5]
  gametocyte NF54 late stage (IV-V) % inhibition Cassera: 7%
[6]; 0.5µM
  gametocyte early stage (I-III) GFP-MTR % inhibition: 17%
[6]; 5µM
  gametocyte early stage (I-III) GFP-MTR % inhibition: 99%
P. berghei ookinetes
  inhibition at 10 µM: 39.4%
[7]
  Translation Inhibitors (nl = 1.0, in vitro translation with P. falciparum lysate): 0.75
[8]
  3D7A female gamete formation acridine orange % inhibition: -3%
[9]
  S. cerevisiae jhy222 in YNBD medium growth compared with DMSO control: -0.11
  S. cerevisiae jhy222 in YNBEG medium growth compared with DMSO control: -0.49
  S. cerevisiae jhy222 in YPD medium growth compared with DMSO control: -0.0536

## CCOC(=O)c1cnc2ccc(OC)cc2c1NCc1ccccc1 [MMV665813]
Mycobacterium marinum
  Mycobacterium marinum relative growth DMSO=1 Antibiotic Assay: 0.86
T. equi (USDA strain)
  EC50: 14.1 µM
[1]; 0.5µM
  gametocyte late stage (IV-V) GFP-MTR % inhibition: 10%
[1]; 5µM
  gametocyte late stage (IV-V) GFP-MTR % inhibition: 2%
T. b. brucei Squib 427
  IC50: 14.9 µM
[2]
  AUC: < 12 µM·h
  Cmax: < 1000 nM
[3]
  inhibition at 25 µM: 23%
[4]
  gametocyte late stage (IV-V) luciferase % inhibition: 5.69%
[5]
  gametocyte NF54 late stage (IV-V) % inhibition Cassera: 36%
[6]; 0.5µM
  gametocyte early stage (I-III) GFP-MTR % inhibition: 26%
[6]; 5µM
  gametocyte early stage (I-III) GFP-MTR % inhibition: 17%
P. berghei ookinetes
  inhibition at 10 µM: 33.4%
[7]
  Translation Inhibitors (nl = 1.0, in vitro translation with P. falciparum lysate): 1.47
[8]
  3D7A female gamete formation acridine orange % inhibition: -11%
[9]
  S. cerevisiae jhy222 in YNBD medium growth compared with DMSO control: -0.13
  S. cerevisiae jhy222 in YNBEG medium growth compared with DMSO control: -0.06
  S. cerevisiae jhy222 in YPD medium growth compared with DMSO control: 0.0021

## CCN(CC)c1cc(C)c2cc(NC(=O)c3cccc(OC)c3)ccc2n1 [MMV000498]
Mycobacterium marinum
  Mycobacterium marinum relative growth DMSO=1 Antibiotic Assay: 0.98
T. equi (USDA strain)
  EC50: 0.46 µM
[1]; 0.5µM
  gametocyte late stage (IV-V) GFP-MTR % inhibition: -0.167%
[1]; 5µM
  gametocyte late stage (IV-V) GFP-MTR % inhibition: 87%
T. b. brucei Squib 427
  IC50: 14.3 µM
[2]
  AUC: > 12 µM·h
  Cmax: > 1000 nM
[3]
  inhibition at 25 µM: 20%
[4]
  gametocyte late stage (IV-V) luciferase % inhibition: -3.24%
[5]
  gametocyte NF54 late stage (IV-V) % inhibition Cassera: 47%
[6]; 0.5µM
  gametocyte early stage (I-III) GFP-MTR % inhibition: 15%
[6]; 5µM
  gametocyte early stage (I-III) GFP-MTR % inhibition: 16%
P. berghei ookinetes
  inhibition at 10 µM: -0.6%
[7]
  Translation Inhibitors (nl = 1.0, in vitro translation with P. falciparum lysate): 0.87
[8]
  3D7A female gamete formation acridine orange % inhibition: 3%
[9]
  S. cerevisiae jhy222 in YNBD medium growth compared with DMSO control: -0.05
  S. cerevisiae jhy222 in YNBEG medium growth compared with DMSO control: 0.14
  S. cerevisiae jhy222 in YPD medium growth compared with DMSO control: -0.0562
